ChEMBL document CHEMBL3352687, “Synthesis of N-glycan units for assessment of substrate structural requirements of N-acetylglucosaminyltransferase III” (Bioorg Med Chem Lett, 2014)
Active and inactive are the calls of the source. The rule behind the calls is not given here.

Assay: Competitive inhibition of human N-terminally His6-tagged N-acetylglucosaminyltransferase 3 expressed in HEK293T cells assessed as GN-GnGnbi-PAs molar ratio level at 100 to 500 uM incubated for 4 hrs using GnGnbi-PA acceptor substrate and UDP-GlcNAc donor substrate by reverse phase HPLC method
Settings: HEK-293T
In the case of `CO[C@H]1O[C@H](CO[C@H]2O[C@H](CO)[C@@H](O)[C@H](O)[C@@H]2O[C@@H]2O[C@H](CO)[C@@H](O)[C@H](O)[C@H]2NC(C)=O)[C@@H](O[C@@H]2O[C@H](CO)[C@@H](O)[C@H](O)[C@H]2NC(C)=O)[C@H](O[C@H]2O[C@H](CO)[C@@H](O)[C@H](O)[C@@H]2O[C@@H]2O[C@H](CO)[C@@H](O)[C@H](O)[C@H]2NC(C)=O)[C@@H]1O`, the inhibition was “Active”.
With `CO[C@H]1O[C@H](CO[C@H]2O[C@H](CO)[C@@H](O)[C@H](O)[C@@H]2O[C@@H]2O[C@H](CO)[C@@H](O)[C@H](O)[C@H]2NC(C)=O)[C@@H](O)[C@H](O[C@H]2O[C@H](CO)[C@@H](O)[C@H](O)[C@@H]2O[C@@H]2O[C@H](CO)[C@@H](O)[C@H](O)[C@H]2NC(C)=O)[C@@H]1O` the inhibition was “Active”.
In the case of `CO[C@H]1O[C@H](CO[C@H]2O[C@H](CO)[C@@H](O)[C@H](O)[C@@H]2O)[C@@H](O)[C@H](O[C@H]2O[C@H](CO)[C@@H](O)[C@H](O)[C@@H]2O)[C@@H]1O`, the inhibition was “inactive”.
In the case of `CO[C@H]1O[C@H](CO[C@H]2O[C@H](CO)[C@@H](O)[C@H](O)[C@@H]2O)[C@@H](O[C@@H]2O[C@H](CO)[C@@H](O)[C@H](O)[C@H]2NC(C)=O)[C@H](O[C@H]2O[C@H](CO)[C@@H](O)[C@H](O)[C@@H]2O)[C@@H]1O`, the inhibition was “inactive”.
